Measured values published in patent US8431556B2, “C-21-keto lupane derivatives preparation and use thereof” (Vertex Pharmaceuticals Incorporated, priority 2008, dated 2013).

System: HIV-1 (HIVIIIB)
Assay: HIV-1 replication in MT2 cell line with and without 30% human serum (viral RT activity in supernatant)
Format: cell-based
Settings: Human immunodeficiency virus 1, MT2, MT-2 cells, with 30% human serum, average IC50 if tested more than once, read-out: MT-2 (HIVIIIB) with 30% HS IC50 range
Method: HIV-1 Replication in MT2 cell line with and without 30% human serum: The cells are infected at a Multiciplicity of Infection (MOI) of 0.5 for 3 h and then washed twice with complete media to remove residual virus. Cells are then resuspended at 0.5×10^6/ml in complete medium (RPMI, 10% FBS, 1% sodium pyruvate), and seeded into 96-well plates (6.25×10^4/well). The cells are cultured in the presence or absence of various concentrations of test compounds in serial dilutions for 3 days at 37° C. The test compounds are serially diluted in complete medium supplemented or not with 30% human serum. After 3 days, 100 μL of cultured medium with cells are replaced with 120 μL of freshly diluted test compounds in complete medium containing or not 30% Human serum. The level of HIV-1 replication is determined at days 5 after infection by the presence of viral RT activity in harvested supernatant fluid. The IC50 and IC90 values for the virus replication are determined by using GRAPHPAD PRISM software.
The IC50 of the compounds tested in accordance with the HIV replication activity assay MT-2 (HIVIIIB) are represented in Table 4 (without HS) and Table 5 (with 30% HS)

| SMILES | IC50 [nM] |
| --- | --- |
| CC(C)C1=C2[C@H]3CC[C@@H]4[C@@]5(C)CC[C@H](OC(=O)CC(C)(C)C(=O)O)C(C)(C)[C@@H]5CC[C@@]4(C)[C@]3(C)CC[C@@]2(C(=O)N2CCC(N)CC2)CC1=O [9-42] | < 199 |
| CC(C)C1=C2[C@H]3CC[C@@H]4[C@@]5(C)CC[C@H](OC(=O)CC(C)(C)C(=O)O)C(C)(C)[C@@H]5CC[C@@]4(C)[C@]3(C)CC[C@@]2(C(=O)N2CCN(C)C(=O)C2)CC1=O [9-46, 3β-O-(3′,3′-Dimethylsuccinyl)-21-oxolup-18-en-28-oic acid N-4-(1-methyl-piperazi-2-one)-acetamide] | < 199 |
| CC(C)C1=C2[C@H]3CC[C@@H]4[C@@]5(C)CC[C@H](OC(=O)CC(C)(C)C(=O)O)C(C)(C)[C@@H]5CC[C@@]4(C)[C@]3(C)CC[C@@]2(C(=O)N2CCNCC2)CC1=O [9-28, 3β-O-(3′,3′-Dimethylsuccinyl)-21-oxolup-18-en-28-oic acid N-piperazinyl-acetamide] | < 199 |
| CC(C)C1=C2[C@H]3CC[C@@H]4[C@@]5(C)CC[C@H](OC(=O)CC(C)(C)C(=O)O)C(C)(C)[C@@H]5CC[C@@]4(C)[C@]3(C)CC[C@@]2(C(=O)NCc2ccccc2Cl)CC1=O [9-12, 3β-O-(3′,3′-Dimethylsuccinyl)-21-oxolup-18-en-28-oic acid N-2-chloro-benzylamide] | < 199 |
| CC(C)C1=C2[C@H]3CC[C@@H]4[C@@]5(C)CC[C@H](OC(=O)CC(C)(C)C(=O)O)C(C)(C)[C@@H]5CC[C@@]4(C)[C@]3(C)CC[C@@]2(C(=O)NCc2ccncc2)CC1=O [9-18, 3β-O-(3′,3′-Dimethylsuccinyl)-21-oxolup-18-en-28-oic acid N-pyridin-4-ylmethylamide] | < 199 |
| CC(C)C1=C2[C@H]3CC[C@@H]4[C@@]5(C)CC[C@H](OC(=O)CC(C)(C)C(=O)O)C(C)(C)[C@@H]5CC[C@@]4(C)[C@]3(C)CC[C@@]2(C(=O)Nc2ccncn2)CC1=O [9-64, 3β-O-(3′,3′-Dimethylsuccinyl)-21-oxolup-18-en-28-oic acid N-pyrimidin-4-yl-acetamide] | < 199 |
| CC(C)C1=C2C3CCC4[C@@]5(C)CC[C@H](OC(=O)CC(C)(C)C(=O)O)C(C)(C)C5CC[C@@]4(C)[C@]3(C)CC[C@@]2(C(=O)NC(C)(C)C(F)(F)F)CC1=O (stereo partly drawn) [9-77, 3β-O-(3′,3′-Dimethylsuccinyl)-21-oxolup-18-en-28-oic acid N-(2,2,2-trifluoro-1,1-dimethyl-ethyl)-acetamide] | < 199 |
| CC(C)C1=C2[C@H]3CC[C@@H]4[C@@]5(C)CC[C@H](OC(=O)CC(C)(C)C(=O)O)C(C)(C)[C@@H]5CC[C@@]4(C)[C@]3(C)CC[C@@]2(C(=O)Nc2ccn(C)n2)CC1=O [9-53, 3β-O-(3′,3′-Dimethylsuccinyl)-21-oxolup-18-en-28-oic acid N-3-amino-1-methyl-1H-pyrazole-acetamide] | < 199 |
| COC(=O)N1CCN(C(=O)[C@@]23CC[C@]4(C)[C@H](CC[C@@H]5[C@@]6(C)CC[C@H](OC(=O)CC(C)(C)C(=O)O)C(C)(C)[C@@H]6CC[C@]54C)C2=C(C(C)C)C(=O)C3)CC1 [9-40, 3β-O-(3′,3′-Dimethylsuccinyl)-21-oxolup-18-en-28-oic acid N-1-acetyl-piperazine-4-carboxylic acid methyl ester] | < 199 |
| CC(C)C1=C2[C@H]3CC[C@@H]4[C@@]5(C)CC[C@H](OC(=O)CC(C)(C)C(=O)O)C(C)(C)[C@@H]5CC[C@@]4(C)[C@]3(C)CC[C@@]2(C(=O)NCCN)CC1=O [9-21, 3β-O-(3′,3′-Dimethylsuccinyl)-21-oxolup-18-en-28-oic acid N-(2-amino-ethyl)-acetamide] | < 199 |
| CC(C)C1=C2[C@H]3CC[C@@H]4[C@@]5(C)CC[C@H](OC(=O)CC(C)(C)C(=O)O)C(C)(C)[C@@H]5CC[C@@]4(C)[C@]3(C)CC[C@@]2(C(=O)NC2CCNCC2)CC1=O [9-31, 3β-O-(3′,3′-Dimethylsuccinyl)-21-oxolup-18-en-28-oic acid N-(4-aminopiperidine)-acetamide] | 200 to 999 |
| CC(C)C1=C2C3CCC4[C@@]5(C)CC[C@H](OC(=O)CC(C)(C)C(=O)O)C(C)(C)C5CC[C@@]4(C)[C@]3(C)CC[C@@]2(C(=O)NC[C@H]2CCCN2)CC1=O (stereo partly drawn) [9-81, 3β-O-(3′,3′-Dimethylsuccinyl)-21-oxolup-18-en-28-oic acid N-((R)-1-pyrrolidin-2-ylmethyl)-acetamide] | < 199 |
| CC(C)C1=C2[C@H]3CC[C@@H]4[C@@]5(C)CC[C@H](OC(=O)CC(C)(C)C(=O)O)C(C)(C)[C@@H]5CC[C@@]4(C)[C@]3(C)CC[C@@]2(C(=O)N2CCN(C)CC2)CC1=O [9-9, 3β-O-(3′,3′-Dimethylsuccinyl)-21-oxolup-18-en-28-oic acid N-(4-methylpiperazinyl) acetamide] | < 199 |
| CC(C)C1=C2[C@H]3CC[C@@H]4[C@@]5(C)CC[C@H](OC(=O)CC(C)(C)C(=O)O)C(C)(C)[C@@H]5CC[C@@]4(C)[C@]3(C)CC[C@@]2(C(=O)NCc2ccc(Cl)cc2)CC1=O [9-14, 3β-O-(3′,3′-Dimethylsuccinyl)-21-oxolup-18-en-28-oic acid N-4-chloro-benzylamide] | < 199 |
| CC(C)C1=C2[C@H]3CC[C@@H]4[C@@]5(C)CC[C@H](OC(=O)CC(C)(C)C(=O)O)C(C)(C)[C@@H]5CC[C@@]4(C)[C@]3(C)CC[C@@]2(C(=O)NC(C)(C)c2ccccc2)CC1=O [9-34, 3β-O-(3′,3′-Dimethylsuccinyl)-21-oxolup-18-en-28-oic acid N-(1-methyl-1-phenyl-ethyl)-acetamide] | < 199 |
| CC(C)C1=C2[C@H]3CC[C@@H]4[C@@]5(C)CC[C@H](OC(=O)CC(C)(C)C(=O)O)C(C)(C)[C@@H]5CC[C@@]4(C)[C@]3(C)CC[C@@]2(C(=O)Nc2cccnc2)CC1=O [9-26, 3β-O-(3′,3′-Dimethylsuccinyl)-21-oxolup-18-en-28-oic acid N-pyridin-3-yl-acetamide] | < 199 |
| CC(C)C1=C2[C@H]3CC[C@@H]4[C@@]5(C)CC[C@H](OC(=O)CC(C)(C)C(=O)O)C(C)(C)[C@@H]5CC[C@@]4(C)[C@]3(C)CC[C@@]2(C(=O)N2CCNC(=O)C2)CC1=O [9-37, 3β-O-(3′,3′-Dimethylsuccinyl)-21-oxolup-18-en-28-oic acid N-4-piperazi-2-one acetamide] | < 199 |
| Cc1cc(C)nc(NC(=O)[C@@]23CC[C@]4(C)[C@H](CC[C@@H]5[C@@]6(C)CC[C@H](OC(=O)CC(C)(C)C(=O)O)C(C)(C)[C@@H]6CC[C@]54C)C2=C(C(C)C)C(=O)C3)n1 [9-58, 3β-O-(3′,3′-Dimethylsuccinyl)-21-oxolup-18-en-28-oic acid N-4,6-dimethyl-pyrimidin-2-yl-acetamide] | < 199 |
| CC(C)C1=C2[C@H]3CC[C@@H]4[C@@]5(C)CC[C@H](OC(=O)CC(C)(C)C(=O)O)C(C)(C)[C@@H]5CC[C@@]4(C)[C@]3(C)CC[C@@]2(C(=O)Nc2ccccc2)CC1=O [9-10, 3β-O-(3′,3′-Dimethylsuccinyl)-21-oxolup-18-en-28-oic acid N-benzamide] | < 199 |
| CC(C)C1=C2C3CCC4[C@@]5(C)CC[C@H](OC(=O)CC(C)(C)C(=O)O)C(C)(C)C5CC[C@@]4(C)[C@]3(C)CC[C@@]2(C(=O)Nc2ccccc2Cl)CC1=O (stereo partly drawn) [9-86, 3β-O-(3′,3′-Dimethylsuccinyl)-21-oxolup-18-en-28-oic acid N-2-chloro-phen-1-yl acetamide] | < 199 |
